Measurements: patent publication US10473645B2, “Methods for identifying a receptor for a ligand and uses thereof” (UNIVERSITE DE GENEVE, priority 2014, dated 2019)

Experiments:
OR67c [1] = target: T1, OR67c (Drosophila melanogaster, UniProt Q9VT90); assay: Drosophila OR transcript level by RT-qPCR after odorant exposure; assay type: in vivo, Drosphila melanogaster; design: from tissue; host or cells: olfactory neurons of living W1118 flies (heads / antennae collected for RNA); details: 5% odorant in DMSO, 5 hours, fly heads
Description: (§1) Drosophila (W1118) were collected between 0 and 14 hours after hatching. Males and females were exposed separately.
(§2) For flies, after exposure, vials containing the animals were placed upside down in a −80° C. freezer for five minutes, then kept in a −20° C. freezer until dissection. Whole heads were removed by hand and placed in a screw-cap tube containing 1 ml of Trizol (Ambion) and a 0.5 cm diameter steel ball, and kept on ice. Samples were homogenized using four runs of 15 s at 6 m/s on a FastPrep®-24 instrument (MP Biomedicals).
(§3) Samples were cooled on ice between each run. RNA extraction followed the Trizol protocol according to the manufacturer instructions, and using 5 μg of RNase-free glycogen as carrier for RNA precipitation. The RNA pellet was resuspended in 20 μl of RNase-free water and a DNAse treatment (Life Technologies Ambion DNase I®) was performed.
(§4) 24 hours-old Drosphila melanogaster flies were kept in plastic tubes and exposed to either 5% ethyl lactate diluted in DMSO or to 5% geranyl acetate diluted in DMSO. The odorants were spotted on papers that were introduced into the plastic tubes. 10 flies were used per condition (8 independent extracts per condition). 5 hours after exposure heads were collected and RNA extracted.
(§5) The transcript levels for Or67c (a known receptor for ethyl lactate) and Or82a (a known receptor for geranyl acetate) were evaluated by RT-qPCR.

OR67c [2] = target: T1, OR67c; details: Hallem and Carlson, 2006; cited from earlier work
OR82a [3] = target: T2, OR82a (Drosophila melanogaster, UniProt P82986); assay: Drosophila OR transcript level by RT-qPCR after odorant exposure; assay type: in vivo, Drosphila melanogaster; design: from tissue; host or cells: olfactory neurons of living W1118 flies (heads / antennae collected for RNA); details: 5% odorant in DMSO, 5 hours, fly heads
Description: as §1, §2, §3, §4, §5

OR82a [4] = target: T2, OR82a; details: Hallem and Carlson, 2006; cited from earlier work

T1 sequence (Q9VT90 whole entry): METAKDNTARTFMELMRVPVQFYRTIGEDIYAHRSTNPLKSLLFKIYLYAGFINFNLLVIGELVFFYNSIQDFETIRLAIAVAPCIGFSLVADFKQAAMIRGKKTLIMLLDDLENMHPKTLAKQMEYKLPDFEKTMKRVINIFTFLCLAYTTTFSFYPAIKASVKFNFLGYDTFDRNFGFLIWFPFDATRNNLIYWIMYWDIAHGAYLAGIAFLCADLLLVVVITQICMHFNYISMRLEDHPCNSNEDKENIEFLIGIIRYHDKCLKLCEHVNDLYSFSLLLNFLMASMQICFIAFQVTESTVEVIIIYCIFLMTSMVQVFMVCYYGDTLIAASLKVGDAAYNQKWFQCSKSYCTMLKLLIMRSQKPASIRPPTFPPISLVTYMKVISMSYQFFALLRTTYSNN
T1 sequence (Q9VNB5 whole entry partner): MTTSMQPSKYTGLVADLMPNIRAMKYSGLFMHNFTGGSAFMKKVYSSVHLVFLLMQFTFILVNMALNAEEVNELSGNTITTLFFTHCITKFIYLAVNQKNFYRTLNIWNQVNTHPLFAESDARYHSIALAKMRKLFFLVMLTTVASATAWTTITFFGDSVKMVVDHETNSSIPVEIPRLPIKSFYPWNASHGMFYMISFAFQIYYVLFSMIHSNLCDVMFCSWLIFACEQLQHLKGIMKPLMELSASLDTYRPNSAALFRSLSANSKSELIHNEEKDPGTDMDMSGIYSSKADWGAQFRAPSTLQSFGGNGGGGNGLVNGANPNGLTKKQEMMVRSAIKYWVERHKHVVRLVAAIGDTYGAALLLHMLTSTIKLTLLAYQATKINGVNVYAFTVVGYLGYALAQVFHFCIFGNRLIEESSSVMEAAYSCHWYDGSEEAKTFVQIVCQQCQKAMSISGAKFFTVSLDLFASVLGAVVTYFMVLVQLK
T2 sequence (P82986 whole entry): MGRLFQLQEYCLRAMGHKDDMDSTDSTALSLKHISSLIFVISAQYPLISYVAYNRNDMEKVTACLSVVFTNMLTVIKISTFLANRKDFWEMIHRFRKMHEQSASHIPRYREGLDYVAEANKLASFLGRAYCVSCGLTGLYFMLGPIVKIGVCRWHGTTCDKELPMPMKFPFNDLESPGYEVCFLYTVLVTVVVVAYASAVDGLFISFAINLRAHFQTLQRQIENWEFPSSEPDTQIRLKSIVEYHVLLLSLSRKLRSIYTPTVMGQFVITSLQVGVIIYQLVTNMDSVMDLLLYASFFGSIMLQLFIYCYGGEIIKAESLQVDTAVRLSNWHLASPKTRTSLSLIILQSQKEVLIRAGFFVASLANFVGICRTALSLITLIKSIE
T2 sequence (Q9VNB5 whole entry partner): as the sequence (Q9VNB5 whole entry partner) above

Row | SMILES | Or67c mRNA level relative to control ORs (OR67c [1]) [×] | OR67c response previously shown (OR67c [2]) | Or82a mRNA level relative to control ORs (OR82a [3]) [×] | OR82a response previously shown (OR82a [4])
1 | CCOC(=O)C(C)O (stereo not shown) [ethyl lactate] | 0.7 | respond | – | –
2 | CC(=O)OC/C=C(\C)CCC=C(C)C [geranyl acetate] | – | – | 0.6 | respond
